Data on 52 molecules can be found in PubChem BioAssay AID1996.

Converted amounts (≈) assume the structure as drawn.

What is called kinetic solubility is the concentration staying in solution when a stock, usually in DMSO, is diluted into the medium.

The conditions of this series: buffer; pH 7.4; 200.0 µM.
Molecule `CC1=C(C)CC(C(=O)NCCCN2CCCC2=O)C(C(=O)O)C1` (configuration not stated) returned a kinetic solubility of more than 48.4 µg/mL.

Turning to `Oc1ccc(N=Cc2c(O)ccc3ccccc23)cc1`, the kinetic solubility is less than 0.6 µg/mL.

`O=C(Nc1ccc(NC(=O)c2cccs2)cc1)c1ccccc1` displayed a solubility (kinetic) of less than 0.3 µg/mL.

Molecule `Cc1cnc(C(=O)OCC(=O)c2cccc3ccccc23)cn1` came in with a solubility (kinetic) of 36.1 µg/mL (≈ 118 µM).

In turn, `COc1ccc(CN(C)CC(=O)Nc2cccc3ccccc23)cc1F` registered a kinetic solubility of 15.1 µg/mL (≈ 42.8 µM).

With `O=C(CCCc1cccs1)NCCc1c[nH]c2ccccc12`, the kinetic solubility came to 44.9 µg/mL (≈ 144 µM).

`CNC(=O)CCCN1C(=O)c2ccccc2Sc2ncccc21` returned a solubility (kinetic) of more than 49.1 µg/mL.

Turning to `CSc1ccccc1NC(=O)c1ccccc1`, the solubility (kinetic) was 28.8 µg/mL (≈ 118 µM).

Molecule `Cc1cccn2c(=O)c(/C=N/O)c(Nc3ccccc3F)nc12` came in with a solubility (kinetic) of 0.2 µg/mL (≈ 0.64 µM).

On to `CN(C)c1ccc([N+](=O)[O-])cc1C(=O)NCC(c1ccco1)N(C)C` (configuration not stated), for which the kinetic solubility was determined as 47.7 µg/mL (≈ 138 µM).

Regarding `COc1ccc(NC(=O)c2ccc(N3CCCC3=O)cc2)cc1Cl`, the solubility (kinetic) turned out to be 2.1 µg/mL (≈ 6.09 µM).

Molecule `COc1ccc(S(=O)(=O)N2CCCC2)c2ccccc12` registered a solubility (kinetic) of 0.9 µg/mL (≈ 3.09 µM).

`Cc1cc(NC(=O)NC2CC(=O)N(c3ccc4c(c3)OCCO4)C2)no1` (configuration not stated) yielded a solubility (kinetic) of 48.5 µg/mL (≈ 135 µM).

The molecule `CCOC(=O)CC(N)c1cccc([N+](=O)[O-])c1.Cl` (configuration not stated) displayed a solubility (kinetic) of more than 41.2 µg/mL.

Molecule `Brc1c(-c2ccc3c(c2)OCO3)nc2ncccn12` returned a solubility (kinetic) of 38.8 µg/mL (≈ 122 µM).

Regarding `CN(C(=O)COC(=O)c1cn(C)c2ccccc12)C1CCCCC1`, the kinetic solubility is more than 49.3 µg/mL.

In turn, `CCOC(=O)c1c(C)[nH]c(-c2csc(C)n2)c1C` came in with a solubility (kinetic) of 27.5 µg/mL (≈ 104 µM).

In the case of `CCn1ccnc1CN(C)Cc1nc(-c2ccccc2)no1`, the solubility (kinetic) turned out to be 31.7 µg/mL (≈ 107 µM).

`CC(=O)c1ccc(OCCCC(=O)Nc2cccc(S(=O)(=O)N3CCOCC3)c2)cc1` yielded a kinetic solubility of 56 µg/mL (≈ 125 µM).

In turn, `Cc1cc(C(=O)COC(=O)C2CC2)c(C)n1-c1ccc(F)cc1` came in with a kinetic solubility of 12.9 µg/mL (≈ 40.9 µM).

Consider `O=C1c2ccccc2C(=O)N1CC(O)COc1ccccc1Cl` (configuration not stated), for which the solubility (kinetic) came to 44 µg/mL (≈ 133 µM).

`Cc1nc(SCC(=O)N2CCN(c3ccccn3)CC2)c(C#N)c(C)c1C` came in with a solubility (kinetic) of 41.8 µg/mL (≈ 110 µM).

`Cc1oc(C(C)(C)C)cc1C(=O)Nc1ccc(N2CCOCC2)cc1` came in with a kinetic solubility of 4.3 µg/mL (≈ 12.6 µM).

The molecule `O=C(NC(O)C(=O)c1ccccc1)c1ccccn1` (configuration not stated) came in with a solubility (kinetic) of more than 38.4 µg/mL.

As for `Cc1ccc(S(=O)(=O)NC(CC(=O)O)c2ccc(F)cc2)cc1` (configuration not stated), the kinetic solubility came to 34.8 µg/mL (≈ 103 µM).

As to `COc1ccc(NC(=O)c2ccc3c(c2)NC(=O)CS3)cc1`, the kinetic solubility came to 10.8 µg/mL (≈ 34.4 µM).

In turn, `Cc1ccccc1NC(=S)N1CCN(c2ccccc2Cl)CC1` had a solubility (kinetic) of 17.5 µg/mL (≈ 50.6 µM).

`Cc1ccc(C(=O)Nc2ccc(S(=O)(=O)N3CCOCC3)cc2)cc1Br` had a solubility (kinetic) of 0.5 µg/mL (≈ 1.14 µM).

Consider `CC(CCc1ccccc1)NC(=O)CSc1cccc[n+]1[O-]` (configuration not stated), for which the kinetic solubility is 40.6 µg/mL (≈ 128 µM).

Molecule `CCN1CCN(C2CC(=O)NC2=O)CC1` (configuration not stated) yielded a kinetic solubility of more than 31.7 µg/mL.

`N#CCC(=O)Nc1ccc(C(=O)NCc2ccccn2)cc1` displayed a solubility (kinetic) of more than 44.1 µg/mL.

In turn, `CCn1cc(CN(C)S(=O)(=O)c2cccc([N+](=O)[O-])c2)cn1` yielded a kinetic solubility of more than 48.7 µg/mL.

In turn, `CN(C(=O)c1ccco1)c1ccccc1C(=O)O` gave a kinetic solubility of more than 36.8 µg/mL.

The molecule `Nc1nc(NCCO)nc(NC2CCCCC2)c1[N+](=O)[O-]` gave a kinetic solubility of 39.1 µg/mL (≈ 132 µM).

`CC(=O)c1ccc(NC(=O)COC(=O)C2CC3C=CC2C3)cc1` (configuration not stated) registered a solubility (kinetic) of more than 47 µg/mL.

In turn, `CC(C)(C)CC(=O)NCc1cccs1` gave a kinetic solubility of more than 31.7 µg/mL.

Turning to `Cc1ccc(C)c(OCCCCN2CCCCC2)c1.O=C(O)C(=O)O`, the solubility (kinetic) stood at 47.5 µg/mL.

With `CC(=O)c1ccc(NC(=O)COC(=O)c2ccc(F)cc2F)cc1`, the solubility (kinetic) was 15.2 µg/mL (≈ 45.6 µM).

The molecule `Cc1ccc(/C=C/C(=O)OCC(=O)NC(=O)NCc2ccccc2)cc1` showed a solubility (kinetic) of 3.8 µg/mL (≈ 10.8 µM).

`O=C(NCCCNC(=O)c1cccnc1)c1ccc(Cl)cc1` came in with a kinetic solubility of 43.3 µg/mL (≈ 136 µM).

`CC(=O)c1cccc(Nc2cc(C)nc3c(C)cccc23)c1.Cl` registered a solubility (kinetic) of more than 49 µg/mL.

`Cc1ccc(NC(=O)C2=NNC(=O)CC2)cc1F` came in with a kinetic solubility of more than 37.4 µg/mL.

`O=C(Nc1ccc2c(c1)OCO2)c1cnccn1` registered a kinetic solubility of 19.5 µg/mL (≈ 80.2 µM).

For `CC(C)N(Cc1nc(-c2ccccc2)no1)C(=O)C(Cl)(Cl)Cl`, the kinetic solubility was 5.9 µg/mL (≈ 16.3 µM).

In turn, `COc1cc2c(cc1OC)CN(C(=O)c1oc3ccccc3c1C)CC2` returned a solubility (kinetic) of 27.2 µg/mL (≈ 77.4 µM).

`CCOC(=O)c1ccc(S(=O)(=O)NCCNCc2ccccc2)cc1.Cl` displayed a kinetic solubility of more than 59.8 µg/mL.

The molecule `CCc1ccc(NC(=O)NC(C)c2ccc3c(c2)OCO3)cc1` (configuration not stated) showed a solubility (kinetic) of 1 µg/mL (≈ 3.2 µM).

As for `Cc1ccc(S(=O)(=O)N[C@H](C(=O)NC2CCC(C)CC2)C(C)C)cc1` (some centres not stated), the solubility (kinetic) is 24 µg/mL (≈ 65.5 µM).

For `CCOc1ncccc1C(=O)N1CCN(C(=O)c2ccccc2)CC1`, the solubility (kinetic) is more than 50.9 µg/mL.

Consider `O=C(NC(O)C(=O)c1ccc(F)cc1)c1ccc(F)cc1` (configuration not stated), for which the kinetic solubility is more than 43.7 µg/mL.

Take `Cc1cccc(-c2nnc(SCC(=O)N3CCCC3)o2)c1`: the solubility (kinetic) was more than 45.5 µg/mL.

In turn, `O=C(O)c1cn(CCOc2ccccc2Cl)c2ccccc12` came in with a kinetic solubility of more than 47.4 µg/mL.
